Source: paper PMC2704374, “A Multidrug ABC Transporter with a Taste for Salt” (PLoS ONE, 2009)

Target: T1, LmrCD (Lactococcus cremoris, UniProt A2RI37+A2RI38)
T1 construct: gene lmrC
Experiment: malachite green ATPase assay
Type: biochemical
Details: 2 mM Mg-ATP; 0.05% DDM

T1 sequence (A2RI38 entry or part of it): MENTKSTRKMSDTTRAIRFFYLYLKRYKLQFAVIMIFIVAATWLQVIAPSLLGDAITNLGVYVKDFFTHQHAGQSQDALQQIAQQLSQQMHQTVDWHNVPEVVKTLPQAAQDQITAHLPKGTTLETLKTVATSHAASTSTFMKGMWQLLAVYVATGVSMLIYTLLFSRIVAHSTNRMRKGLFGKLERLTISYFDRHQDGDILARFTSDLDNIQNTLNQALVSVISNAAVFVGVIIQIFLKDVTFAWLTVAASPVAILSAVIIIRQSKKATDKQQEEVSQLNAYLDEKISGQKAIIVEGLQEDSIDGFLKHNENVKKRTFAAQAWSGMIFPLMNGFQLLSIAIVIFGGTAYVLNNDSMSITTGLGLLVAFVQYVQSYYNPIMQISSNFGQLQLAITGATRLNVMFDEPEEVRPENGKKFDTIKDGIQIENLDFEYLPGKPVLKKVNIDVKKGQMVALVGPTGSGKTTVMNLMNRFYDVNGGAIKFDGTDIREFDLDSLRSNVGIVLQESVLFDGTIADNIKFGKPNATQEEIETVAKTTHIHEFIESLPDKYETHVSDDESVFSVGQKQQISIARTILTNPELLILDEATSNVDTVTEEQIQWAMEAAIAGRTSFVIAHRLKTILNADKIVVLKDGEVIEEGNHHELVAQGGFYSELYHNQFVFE
T1 sequence (A2RI37 entry or part of it): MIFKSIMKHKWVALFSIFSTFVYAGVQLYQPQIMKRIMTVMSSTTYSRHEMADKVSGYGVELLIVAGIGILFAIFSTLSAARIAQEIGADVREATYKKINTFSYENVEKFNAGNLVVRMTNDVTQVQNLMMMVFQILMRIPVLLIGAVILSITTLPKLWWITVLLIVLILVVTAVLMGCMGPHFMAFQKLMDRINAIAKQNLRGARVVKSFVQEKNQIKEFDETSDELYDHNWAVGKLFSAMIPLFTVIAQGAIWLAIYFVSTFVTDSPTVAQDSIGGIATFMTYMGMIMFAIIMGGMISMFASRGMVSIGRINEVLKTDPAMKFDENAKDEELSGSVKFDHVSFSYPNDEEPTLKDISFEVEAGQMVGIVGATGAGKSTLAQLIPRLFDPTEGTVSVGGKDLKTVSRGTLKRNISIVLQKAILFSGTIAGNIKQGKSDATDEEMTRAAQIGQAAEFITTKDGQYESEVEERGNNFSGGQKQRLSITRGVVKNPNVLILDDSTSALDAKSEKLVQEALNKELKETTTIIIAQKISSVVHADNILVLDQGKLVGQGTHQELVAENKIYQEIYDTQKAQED

SMILES: Nc1ncnc2c1ncn2[C@@H]1O[C@H](COP(=O)(O)OP(=O)(O)OP(=O)(O)O)[C@@H](O)[C@H]1O [ATP]
- malachite green ATPase assay: the ATPase activity of the purified multidrug ABC transporter LmrCD from L. lactis
